Measurements: PubChem BioAssay AID1033 (Sanford-Burnham Center for Chemical Genomics, 2008)
Calls of active or inactive are those of the source. No rule for the calls is given here.

Target: Chaperone protein DnaK (Escherichia coli (strain K12)) (UniProt P0A6Y8)
Test: E. coli DnaK SBD ligand binding – biophysical, NMR, chaperone (AID 1033)
Settings: Purified DnaK SBD

Chaperone protein DnaK (Escherichia coli (strain K12)), sequence (P0A6Y8 whole entry, looked up): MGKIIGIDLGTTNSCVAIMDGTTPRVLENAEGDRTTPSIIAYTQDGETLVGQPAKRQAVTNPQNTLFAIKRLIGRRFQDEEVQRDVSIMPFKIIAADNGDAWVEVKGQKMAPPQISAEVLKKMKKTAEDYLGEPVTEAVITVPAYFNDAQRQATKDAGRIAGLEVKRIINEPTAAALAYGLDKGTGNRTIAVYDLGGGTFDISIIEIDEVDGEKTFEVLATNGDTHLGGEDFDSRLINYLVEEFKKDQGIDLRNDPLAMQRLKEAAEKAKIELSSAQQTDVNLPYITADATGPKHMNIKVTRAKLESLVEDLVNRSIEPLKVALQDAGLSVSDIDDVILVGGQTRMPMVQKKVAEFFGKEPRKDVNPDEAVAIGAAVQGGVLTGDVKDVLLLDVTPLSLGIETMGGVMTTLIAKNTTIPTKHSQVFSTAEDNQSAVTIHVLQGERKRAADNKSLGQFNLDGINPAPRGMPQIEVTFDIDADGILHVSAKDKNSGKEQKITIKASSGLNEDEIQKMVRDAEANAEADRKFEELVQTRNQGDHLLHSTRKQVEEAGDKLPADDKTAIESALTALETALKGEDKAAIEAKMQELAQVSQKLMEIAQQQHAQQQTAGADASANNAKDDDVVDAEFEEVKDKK

How did the Kd turn out when CCOc1cc(S(=O)(=O)N2CCOCC2)ccc1F was run?
Its Kd is > 4 mM (inactive).

For OCc1ccc(OC(F)(F)F)cc1, which Kd is on record?
The Kd was > 4 mM (inactive).

For CNC[C@@H](O)c1ccc(O)c(O)c1, which Kd is on record?
Its Kd is > 4 mM (inactive).

How did the Kd turn out when C=CCc1ccc2c(c1)OCO2 was run?
The Kd was > 4 mM (inactive).

How did the Kd turn out when Cn1c2ccccc2n2c(=S)[nH]nc12 was run?
Its Kd is > 4 mM (inactive).

Which Kd does the source give for Cc1cccc(-n2c(N)cc(=O)[nH]c2=S)c1 here?
The Kd was > 4 mM (inactive).

With Cc1cc2c(N)cccc2nn1 as the compound, how does the Kd read?
The Kd was > 4 mM (inactive).

Which Kd does the source give for COc1cccc(O)c1O here?
The Kd was > 4 mM (inactive).

How did the Kd turn out when Cn1c(SCC(N)=O)nnc1-c1cccnc1 was run?
The Kd was > 4 mM (inactive).

CC(=O)Nc1ccc(C(=O)NC2CCSC2=O)cc1 (stereo not given) was tested. Which Kd did it give?
Its Kd is > 4 mM (inactive).

How did the Kd turn out when CC(C)(CO)NC(=O)c1ccccc1F was run?
The Kd was > 4 mM (inactive).

CC(=O)Nc1cccc(-c2nnc(-c3ccccc3)o2)c1 was tested. Which Kd did it give?
Its Kd is > 4 mM (inactive).

Which Kd does the source give for NC(=O)C1CCN(C(=S)c2ccccc2)CC1 here?
The Kd was > 4 mM (inactive).

With CC(=O)Nc1ccc2c(c1)CCC2=O as the compound, how does the Kd read?
The Kd was > 4 mM (inactive).

Which Kd does the source give for COc1ccc(/C=C2/SC(N)=NC2=O)c(OC)c1 here?
Its Kd is > 4 mM (inactive).

How did the Kd turn out when O=C1c2cccnc2C(=O)N1Cc1ccc2c(c1)OCO2 was run?
Its Kd is > 4 mM (inactive).

How did the Kd turn out when CC1(C)C2CC(=O)[C@]3(C)C(CC[C@@]4(C)[C@H](c5ccoc5)OC(=O)[C@H]5O[C@]543)[C@@]2(C)C=C[C@@H]1O (stereo not given in full) was run?
The Kd was > 4 mM (inactive).

How did the Kd turn out when O=C1CN(C(=O)CN2CCOCC2)c2ccccc2N1 was run?
Its Kd is > 4 mM (inactive).

Which Kd does the source give for COc1ccc(/C=C2\NC(=S)N(C)C2=O)cc1O here?
Its Kd is > 4 mM (inactive).

CCOC(=O)C1=C(C)N2CCN=C2S1 was tested. Which Kd did it give?
The Kd was > 4 mM (inactive).

CC(O)C(=O)N/N=C/c1cccs1 (stereo not given) was tested. Which Kd did it give?
The Kd was > 4 mM (inactive).

CC(=O)O[C@H]1CCC2(C)C3=C(CCC2C1(C)C)[C@]1(C)CCC(C(C)CCC=C(C)C)[C@@]1(C)CC3 (stereo not given in full) was tested. Which Kd did it give?
Its Kd is > 4 mM (inactive).

Which Kd does the source give for Cc1cccc(-n2c(N)cc(=O)[nH]c2=S)c1C here?
The Kd was > 4 mM (inactive).

With Cc1nc(-c2cccc(N)c2)cs1 as the compound, how does the Kd read?
Its Kd is > 4 mM (inactive).

For CC(=O)NC(c1ccccc1)c1cccnc1 (stereo not given), which Kd is on record?
Its Kd is > 4 mM (inactive).

For COc1cccc(Oc2ccc(N)cn2)c1, which Kd is on record?
The Kd was > 4 mM (inactive).

With CC1=C(C(N)=O)C(c2ccccc2)NC(=O)N1 (stereo not given) as the compound, how does the Kd read?
The Kd was > 4 mM (inactive).

COC(=O)C[C@@H]1C2(C)C(=O)[C@@H](CC3=C4CC(O)O[C@@H](c5ccoc5)[C@]4(C)CCC32)[C@H](O)C1(C)C (stereo not given in full) was tested. Which Kd did it give?
The Kd was > 4 mM (inactive).

Which Kd does the source give for Cc1nc(-c2cc(C(=O)O)no2)cs1 here?
The Kd was > 4 mM (inactive).

How did the Kd turn out when CC1(C)CC[C@]2(C(=O)O)CC[C@]3(C)C(=CCC4[C@@]5(C)CC[C@H](O)[C@@](C)(CO)C5CC[C@]43C)C2C1 (stereo not given in full) was run?
Its Kd is > 4 mM (inactive).

How did the Kd turn out when CN(c1ccccc1C(=O)N1CCCC1)S(C)(=O)=O was run?
The Kd was > 4 mM (inactive).

OCC1Cc2ccccc2N1 (stereo not given) was tested. Which Kd did it give?
The Kd was > 4 mM (inactive).

How did the Kd turn out when COc1c2ccoc2c(OC)c2oc(=O)ccc12 was run?
The Kd was > 4 mM (inactive).

With Cc1c(C(=O)N2CCOCC2)oc2c1C(=O)CC(C)(C)C2 as the compound, how does the Kd read?
The Kd was > 4 mM (inactive).

With OCc1sccc1-n1cccc1 as the compound, how does the Kd read?
The Kd was > 4 mM (inactive).

How did the Kd turn out when CC(C)(C)CC(=O)NC1=NCCS1 was run?
Its Kd is > 4 mM (inactive).

Which Kd does the source give for CNC(Cc1c[nH]c2ccccc12)C(=O)O (stereo not given) here?
The Kd was > 4 mM (inactive).

With COc1ccc2cc1Oc1ccc(cc1)C[C@H]1c3c(cc4c(c3Oc3cc5c(cc3OC)CCN(C)[C@@H]5C2)OCO4)CCN1C as the compound, how does the Kd read?
The Kd was > 4 mM (inactive).

With Cc1cc(=O)c2c(O)cc(O)c(C)c2o1 as the compound, how does the Kd read?
The Kd was > 4 mM (inactive).

Which Kd does the source give for Cc1ncc(C[n+]2csc3ccccc32)c(N)n1 here?
The Kd was > 4 mM (inactive).

For O=C(Nc1cccnc1)c1c(F)cccc1F, which Kd is on record?
The Kd was > 4 mM (inactive).

With Cc1c(N=Cc2ccco2)c(=O)n(-c2ccccc2)n1C as the compound, how does the Kd read?
The Kd was > 4 mM (inactive).

For NC(=O)C1CCN(CC2CC=CCC2)CC1 (stereo not given), which Kd is on record?
Its Kd is > 4 mM (inactive).

Nc1nnc(-c2ccncc2)s1 was tested. Which Kd did it give?
Its Kd is > 4 mM (inactive).

For c1ccc2nc3c(nc2c1)CCc1nonc1-3, which Kd is on record?
The Kd was > 4 mM (inactive).

With O=C1CCNc2ccccc2N1 as the compound, how does the Kd read?
Its Kd is > 4 mM (inactive).

For COC(=O)C[C@@H]1C2(C)C(=O)[C@@H](CC3=C4C=C(OC)O[C@@H](c5ccoc5)[C@]4(C)CCC32)[C@H](O)C1(C)C (stereo not given in full), which Kd is on record?
Its Kd is > 4 mM (inactive).

Cc1ccc(N)nc1 was tested. Which Kd did it give?
Its Kd is > 4 mM (inactive).

For CCC(=O)Nc1ccc(-c2nn3c(C)nnc3s2)cc1, which Kd is on record?
Its Kd is > 4 mM (inactive).

With CN1C(=O)c2ccc(N=C3NC(=O)CS3)cc2C1=O as the compound, how does the Kd read?
The Kd was > 4 mM (inactive).

Which Kd does the source give for CC(C)CNc1cc(=O)n(C)c(=O)n1C here?
Its Kd is > 4 mM (inactive).

With Cc1cc(O)c(C)c(O)c1C(=O)O as the compound, how does the Kd read?
Its Kd is > 4 mM (inactive).

Which Kd does the source give for O=C(O)C1CCN(S(=O)(=O)c2cccs2)CC1 here?
Its Kd is > 4 mM (inactive).

Nc1ncnc(NCc2cccnc2)c1[N+](=O)[O-] was tested. Which Kd did it give?
Its Kd is > 4 mM (inactive).

O=C(CC1NC(=O)NC1=O)Nc1ccccc1 (stereo not given) was tested. Which Kd did it give?
Its Kd is > 4 mM (inactive).

For NC1=NC(=O)C(CC(=O)Nc2ccccc2F)S1 (stereo not given), which Kd is on record?
The Kd was > 4 mM (inactive).

Which Kd does the source give for O=C(O)c1ccc2c(c1)OCCO2 here?
The Kd was > 4 mM (inactive).

Oc1ccc2c(c1)OCO2 was tested. Which Kd did it give?
Its Kd is > 4 mM (inactive).

NC(=O)c1cccc(Cl)n1 was tested. Which Kd did it give?
Its Kd is > 4 mM (inactive).

With Cc1ccccc1NC(=O)C1CC(=O)N=C(N)S1 (stereo not given) as the compound, how does the Kd read?
Its Kd is > 4 mM (inactive).

With O=C(NCC1CCCCC1)c1ccco1 as the compound, how does the Kd read?
The Kd was > 4 mM (inactive).

How did the Kd turn out when CC(=O)Nc1cc(S(=O)(=O)N(C)C)ccc1Cl was run?
The Kd was > 4 mM (inactive).

For COc1ccc(-c2cc(=O)c3c(O)c(OC)c(O[C@H]4O[C@H](CO[C@@H]5O[C@@H](C)[C@H](O)[C@@H](O)[C@H]5O)[C@@H](O)[C@H](O)[C@H]4O)cc3o2)cc1, which Kd is on record?
The Kd was > 4 mM (inactive).

For O=C(O)c1onc2ccccc12, which Kd is on record?
The Kd was > 4 mM (inactive).

How did the Kd turn out when Cn1c(-c2ccccc2F)n[nH]c1=S was run?
The Kd was > 4 mM (inactive).

How did the Kd turn out when O=C(O)CSCc1c(F)cccc1Cl was run?
The Kd was > 4 mM (inactive).

With O=C1CN2C(=N1)N(Cc1ccccc1)c1ccccc12 as the compound, how does the Kd read?
The Kd was > 4 mM (inactive).

c1cncc(-c2nnc(-c3cccnc3)nn2)c1 was tested. Which Kd did it give?
Its Kd is > 4 mM (inactive).

How did the Kd turn out when CC(C)(C)C(=O)Nc1nnc(SCC(N)=O)s1 was run?
Its Kd is > 4 mM (inactive).

COc1ncnc(N)c1[N+](=O)[O-] was tested. Which Kd did it give?
Its Kd is > 4 mM (inactive).

COc1ccc2c(=O)c(CC(=O)O)coc2c1 was tested. Which Kd did it give?
The Kd was > 4 mM (inactive).

How did the Kd turn out when c1ccc(CCNc2ncnc3nc[nH]c23)cc1 was run?
Its Kd is > 4 mM (inactive).

For Cc1ccc(N2C(=O)CCC2=O)cc1, which Kd is on record?
The Kd was > 4 mM (inactive).

How did the Kd turn out when O=C1CCC(=O)N1c1nc2ccccc2s1 was run?
Its Kd is > 4 mM (inactive).

With O=C(NC1=NCCS1)c1csc2ccccc12 as the compound, how does the Kd read?
Its Kd is > 4 mM (inactive).

With O=C(Nc1cnc2ccccn2c1=O)c1ccc(F)cc1 as the compound, how does the Kd read?
The Kd was > 4 mM (inactive).

Which Kd does the source give for CCN1CCC2(CC1)CC1CC3C=CC1(CN2C(C)=O)O3 (stereo not given) here?
The Kd was > 4 mM (inactive).

Which Kd does the source give for Cc1n[nH]c(=S)n1-c1ccc(C(=O)O)cc1 here?
The Kd was > 4 mM (inactive).

With Cc1nc(NC(=O)c2cccnc2)ccc1Br as the compound, how does the Kd read?
The Kd was > 4 mM (inactive).

N=c1n(N)c2ccccc2n1CCO was tested. Which Kd did it give?
Its Kd is > 4 mM (inactive).

With CCOC(=O)c1cc(C)[nH]n1 as the compound, how does the Kd read?
Its Kd is > 4 mM (inactive).

How did the Kd turn out when Cc1occc1C(=O)Nc1cc(C(C)(C)C)on1 was run?
The Kd was > 4 mM (inactive).

NC(=O)Cn1nnc(-c2ccc(C(F)(F)F)cc2)n1 was tested. Which Kd did it give?
The Kd was > 4 mM (inactive).

Which Kd does the source give for O=[n+]1cc(-c2ccccc2)n([O-])c2c1CCC2 here?
Its Kd is > 4 mM (inactive).

NC(=O)c1c(Cl)nsc1-c1ccccc1Cl was tested. Which Kd did it give?
Its Kd is > 4 mM (inactive).
